Consider six compounds from patent publication US20250332139A1, “PS[…] AND THEIR USE FOR TREATING […] AND NE[…] DISORDERS” (Transcend Therapeutics, Inc., priority 2021, published 2025).

Each structure is given as a SMILES string. Where two headings read alike, the source gives them in different places.

Series [1] deals with Sprague Dawley rats. In words: Forced Swim Test (FST). It is filed as in vivo, rat. The text has this: The Forced Swim Test (FST) is a classic, and the most used preclinical behavioral assay to screen compounds with antidepressant-like activity and has high predictive and face validity (Porsolt et al. (1977) Nature 266:730; Borsini and Meli (1988) Psychopharmacology 94:147). The premise of the FST is that when rats are placed into a cylinder filled with water, they will initially try to escape, but over time will become immobile. This increased immobility reflects behavioral despair, modeling a depressive-like state.
Forced Swim Test (FST): In the FST trial, rats were placed in a circular plexiglass container filled with water, with no means of escape. Water temperature was maintained at 22-25° C. and changed for every animal. After an acclimation period, rats were timed for inactivity (failure to struggle), activity, swim time and climbing time. Day 1 consisted of a 15 min acclimation trial, and Day 2 (24 h later) consisted of the 5 min test. A time sampling procedure was employed where animals were observed every 5 sec and scored for immobility, swimming, or climbing. Fluoxetine (10 mg/kg, IP, Sigma Aldrich) or 0.9% sterile saline vehicle (vehicle 3X group) were administered 23.5, 5, and 1 h before testing in the FST. […] The experimenter was blinded to treatment.
Forced Swim Test: In the FST trial, rats were placed in a circular plexiglass container filled with water, with no means of escape. Water temperature was maintained at 22-25° C. and changed for every animal. After an acclimation period, rats were timed for inactivity (failure to struggle), activity, swim time and climbing time. Day 1 consisted of a 15 min acclimation trial, and Day 2 (24 h later) consisted of the 5 min test. A time sampling procedure was employed where animals were observed every 5 sec and scored for immobility, swimming, or climbing. Fluoxetine (10 mg/kg, IP, Sigma Aldrich) or 0.9% sterile saline vehicle (vehicle 3X group) were administered 23.5, 5, and 1 h before testing in the FST. 2C-B (2.5, 10, or 20 mg/kg, IP, Cayman Chemical) or 0.9% saline vehicle (vehicle 1X group) were administered 30 min prior to FST testing. The experimenter was blinded to treatment.
Drug Treatment: Fluoxetine (10 mg/kg, IP, Sigma Aldrich) or 0.9% sterile saline vehicle were administered 23.5, 5, and 1 h before testing in the FST. […] Control animals received fluoxetine alone, methylone alone, or saline vehicle.
Forced Swim Test: In the FST trial, rats were placed in a circular plexiglass container filled with water, with no means of escape. Water temperature was maintained at 22-25° C. and changed for every animal. After an acclimation period, rats were timed for inactivity (failure to struggle), activity, swim time and climbing time. The experimenter and scorer were blind to treatment group. Day 1 consisted of a 15 min acclimation trial, and Day 2 (24 h later) consisted of the 5 min test. A time sampling procedure was employed where animals were observed every 5 sec and scored for immobility, swimming, or climbing.
The FST was performed and scored by an experimenter blind to treatment group according to standard protocols and based on a “modified FST” procedure (Slattery and Cryan (2012) Nat Protoc, 7:1009). Briefly, rats were placed in a circular plexiglass container (29.2 cm diameter, 49.5 cm height) filled with water to a depth of 30 cm so rats could not support themselves by touching the bottom of the tank. Water was maintained at 22-25° C. and was changed for every animal. Day 1 (Training) consisted of a 15 min acclimation trial, and Day 2 (Testing, 24 h later) consisted of the 5 min test. A time sampling procedure was employed where animals were observed every 5 seconds for the duration of the test session (60 counts or 5 minutes) and scored for immobility (defined as the failure to struggle), swimming (defined as a circular movement around the tank), or climbing (defined as an upwards escape behavior). […]

In the next series the test system is C57Bl/6 mice. In words: Cisplatin CIPN model, von Frey test. It is filed as in vivo, mouse. How it is done: Cisplatin, a platinum-based chemotherapy agent has been used to reduce pain thresholds in a model of CIPN. Effects of acute (single higher dose) or sub-chronic (7 days repeated lower dose) 2C-B on pain thresholds were investigated in cisplatin-treated animals compared with vehicle or cisplatin-treated controls.
Methods: Male C57Bl/6 mice aged 12-16 weeks were used. Cisplatin (2.5 mg/kg) or vehicle was administered on days 1-5 and 11-15.
Vehicle, sub-chronic 2C-B (5 mg/kg once daily days 17-23) or acute 2C-B (20 mg/kg once on day 17) was then administered IP (N=16-18/group). VonFrey testing took place on day 17 (30 min post-dose) and days 21 and 24 (pre-dose) to monitor the effects of 2C-B in cisplatin treated animals, compared with animals receiving cisplatin+vehicle or vehicle+vehicle.
For von Frey measurements, animals were placed into wire bottom cubicles with opaque Plexiglas walls, allowing access to the underside of their paws. Animals were habituated to this environment for at least 30 minutes before the start of the von Frey filament application. Static allodynia was measured using Semmes-Weinstein von Frey filaments (Stoelting, Wood Dale, IL). Mechanical allodynia was tested by touching the plantar surface of the animals' right and left hind paws with von Frey filaments which deliver a calibrated amount of force (0.07, 0.16, 0.4, 0.6. 1.0, 2.0, 4.0, 6.0 g). […]

A further series deals with experienced drug users. Conditions: cited from earlier work.
The test system of series [2] is Sprague Dawley rats. Conditions: previous literature reports (Hibicke 2020; Yang 2013; Tizabi 2012); cited from earlier work.
In another series the test system is C57BL/6J mice. In words: Fear extinction paradigm (PTSD mouse model). It is filed as in vivo. The following applies: MBDB 5 mg/kg IP, day 2. From the text: Effective PTSD treatments facilitate the disassociation between a traumatic memory and the patient's fear response, making cues for the traumatic memory evoke less of a fear response. This is modeled in the mouse fear extinction paradigm (see FIG. 9A) which takes place over 3 days. On day 1 (fear conditioning), mice are trained to acquire a “traumatic memory,” namely associating the conditioned stimulus (CS, tone) to the unconditioned stimulus (US, foot shock). On day 2 (extinction training), they are trained to forget the traumatic memory association by presenting the CS 6 times (with no US) in a novel environment. On day 3 (extinction recall), the mice are “asked” if that tone (CS) still elicits a fearful response, as measured by the time spent freezing when the tone is presented. Less time freezing means better extinction recall. Drugs that improve extinction recall reduce freezing time on day 3, and, therefore, show potential as a PTSD treatment.
Methods: Cued fear conditioning was performed in C57BL/6J mice. On day 1, animals were placed in the chambers and presented with a training session (CS-US pairing). The training consisted of a 2-minute habituation followed by a 30-second, 80 dB tone; during the last 2 seconds of the tone animals received a 1 mA foot shock. This US-CS procedure occurred once for a total of one paired presentation of tone and shock. Freezing behavior (immobility) was recorded in 5-10-see intervals during the session. Percent baseline freezing behavior was determined in the 2-minute habituation period. On day 3, animals were placed in context B, in which tactile and odor cues differed from context A. Following a 2 minute acclimation period animals received 4×30 sec presentations of the CS (tone) in the absence of the US (footshock), with a 45 sec interval between presentations. Freezing was recorded in 5-10-see intervals to measure baseline freezing response to the altered context, and freezing response to each tone cue presentation. […] On day 4 (Post-Extinction Testing in Drug-Free State), animals were placed in Context B. Following a 2 min acclimation period, animals received 4×30 sec extinction tone duration presentations of the CS (tone) in the absence of the US (footshock), with a 45 sec interval between presentations. Freezing was recorded in 5-10-see intervals to measure baseline freezing response to the altered context, and freezing response to each tone cue presentation.

Series [3] concerns serotonergic terminals in the cortex and hippocampus. The following applies: (±)-MBDB.HCl 25 mg/kg IP every 12 hours for 4 days, 2 weeks post-treatment; cited from earlier work.
Series [4] concerns the target T1, Human serotonin 5HT2B receptor (Homo sapiens, UniProt P41595).
T1 construct: host or cells: receptor-expressing membranes
The experiment in a line: 5HT2B competitive radioligand binding. Conditions: ratio of Ki values. The method, then:
Human serotonin 5HT2B receptor membrane preparations were divided into aliquots. On the day of the assay, membranes were diluted at 1:200 in incubation buffer. […] To each well was added 150 μL membrane preparation, 50 μL test compound, non-specific compound, or buffer alone, as well as 50 μL radioligand. The plate was incubated at 35° C. for 90 minutes with gentle agitation. […] For each concentration of drug, non-specific binding was subtracted from total binding to give specific binding. […] Ki was subsequently calculated using the ChengPrusoff equation.

T1 sequence (P41595 whole entry): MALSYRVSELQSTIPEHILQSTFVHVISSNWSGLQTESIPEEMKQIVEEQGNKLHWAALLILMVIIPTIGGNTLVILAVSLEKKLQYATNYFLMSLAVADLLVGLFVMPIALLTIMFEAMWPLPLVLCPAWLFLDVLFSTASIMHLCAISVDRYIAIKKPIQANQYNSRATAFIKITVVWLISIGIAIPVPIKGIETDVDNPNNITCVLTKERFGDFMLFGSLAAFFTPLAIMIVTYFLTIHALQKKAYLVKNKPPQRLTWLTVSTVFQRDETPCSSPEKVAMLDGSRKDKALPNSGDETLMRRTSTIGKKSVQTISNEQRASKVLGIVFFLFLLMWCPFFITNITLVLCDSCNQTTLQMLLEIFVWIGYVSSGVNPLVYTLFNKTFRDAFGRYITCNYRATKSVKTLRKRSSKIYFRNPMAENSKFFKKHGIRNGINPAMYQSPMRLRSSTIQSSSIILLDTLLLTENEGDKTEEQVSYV

Take `COc1cc(CCN)c(OC)cc1Br` [2C-B, 4-Bromo-2,5-dimethoxyphenethylamine]: the climbing result in the series on Sprague Dawley rats [1] (2C-B high-dose group (20 mg/kg IP)) is reported as “significantly decreased”. The swimming result in the series with Sprague Dawley rats [1] (2C-B single dose IP 30 min before test) was “significant increase in swimming”. The “effect of repeated doses” value in the series on C57Bl/6 mice (5 mg/kg 2C-B once daily days 17-23) is given as “sustained beneficial effect”. Besides, the “pain thresholds in cisplatin-treated animals” value with C57Bl/6 mice (single dose 5 or 20 mg/kg IP, within 30 min, day 17) is reported as “significantly increased”. The adverse effects entry with experienced drug users (self-administered 2C-B, 10 to 20 mg) is on record as “no serious adverse effects”.

With `CCN(CC)C(=O)[C@@H]1C=C2c3cccc4[nH]cc(c34)C[C@H]2N(C)C1` [LSD, lysergic acid-N,N-diethylamide], in the series with Sprague Dawley rats [2], the reduction in immobility is given as 38%.

Turning to `CNCCC(Oc1ccc(C(F)(F)F)cc1)c1ccccc1` (centres unmarked) [fluoxetine, reference compound], in the series with Sprague Dawley rats [1] (Example 8, fluoxetine 10 mg/kg IP x3), the swimming behavior result is given as “significantly increased swimming behavior”.

Take `CCC(Cc1ccc2c(c1)OCO2)NC` (centres unmarked) [MBDB, N-methyl-1-(1,3-benzodioxol-5-yl)-2-aminobutane]: the immobility result with Sprague Dawley rats [1] (MBDB 5-30 mg/kg IP, 30 min before test) is on record as “significantly reduced immobility”. Further, in the series with C57BL/6J mice, the “extinction acquisition, first trial of extinction training” value is “improved extinction acquisition” and the locomotor activity result is “small, but significant increase in locomotor activity”. Further, the “serotonergic terminals destroyed in the cortex and hippocampus” value in series [3] is 55-60%. For the same compound, the adverse effects entry in the series on experienced drug users (self-administered MBDB, 100 to 300 mg) is “no serious adverse effects”.

As for `CC(N)Cc1ccc2c(c1)OCO2` (centres unmarked) [MDA], the “times greater affinity for the 5HT2B receptor compared with methylone” value in series [4] is 37 times.

As to `CN(C)CCc1c[nH]c2cccc(OP(=O)(O)O)c12` [psilocybin], the reduction in immobility in the series on Sprague Dawley rats [2] is 67%.
